Data reported in US20130040882A1, “USE OF FIBROBLAST GROWTH FACTOR FRAGMENTS” (NOVARTIS AG, priority 2003, published 2013).
Values joined by “and” are separate entries in the source; they are usually repeats but may differ in a detail not shown here. Equal entries are not always repeated.

What was measured:
Assay type in all cases: in vivo, cynomolgus monkeys (Macaca fascicularis)
bone tissue = test: Salmon calcitonin/PTS893 monkey study: histomorphometry of bone tissue (tibia, vertebra)
Protocol: Bone sections were stained for osteonectin, osteopontin and osteocalcin and were evaluated histopathologically. Histomorphometry of the bone tissue was performed regarding parameters for bone resorption and synthesis (osteoid formation).
Histomorphometry of bone tissue was performed to determine parameters related to bone resorption and bone synthesis (osteoid formation).

[1] = system: transcript abundance in organs; test: Salmon calcitonin/PTS893 monkey study: multiorgan gene expression profiling (HG-U95Av2 arrays); parameters: key: B = bone; K = kidney; M = muscle; P = pituitary; L = liver; T = trachea
Protocol: A set of tissues was selected for gene expression profiling. These set included samples from kidney, bone, muscle, duodenum, pituitary and liver.
HG-U95Av2 GeneChip® expression probe arrays (Affymetrix, Santa Clara Calif. USA) were used. […] Workstation 400 (Affymetrix).
Data analysis was performed with the Silicon Genetics software package GeneSpring version 4.2.1 and 5. Average difference values below 20 were set to 20.
The threshold range for considering as up or down regulation was determined within the context of the biological interpretation of the study.
Increase and decrease reported here refer to transcript abundance, unless specifically stated.

[2] = Salmon calcitonin/PTS893 monkey study: haematology;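 also: haematology parameters were measured in blood collected from a peripheral vein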
Protocol: Animals were fasted overnight before blood collection but had free access to water. Blood samples were taken from a peripheral vein. Standard haematology and clinical chemistry analysis were performed once during pretest and at the end of the treatment period. Blood samples were collected from each animal at the same intervals as described for the clinical chemistry investigations. The serum samples were deep-frozen (approximately −80° C.) until analyses for hormone determination.

[3] = tibia, group mean (males and females)
[4] = tibia, individual animals (males and females)
[5] = vertebra, group mean (males and females)
[6] = vertebra, individual animals (males and females)
[7] = Effects on Osteoblasts, autocrine/paracrine regulation of osteoblast function
[8] = Effects on Osteoblasts, endocrine regulation of osteoblast function
[9] = Effects on Osteoclasts: bone resorption by osteoclast
[10] = Effects on Osteoclasts: osteoclast determination, survival and differentiation
[11] = Extracellular matrix, collagen synthesis

Leu8, Asp10, Lysll, A1a16, G1n18, Thr33, A1a34 human PTH 1-34 [PTS893, Leu8, Asp10, Lysll, A1a16, G1n18, Thr33, A1a34 human PTH 1-34 [hPTH(1-34)]]
Increase in osteoid surface (bone tissue; tibia): 49%
Increase in osteoid volume (bone tissue; tibia): 37%
Increase in the osteoblast surface (bone tissue; tibia): 40%
Increase of cortical porosity (bone tissue; tibia (T)): 54%
Reduction of cortical thickness (bone tissue; tibia (T)): 18%
BT/TV (trabecular bone volume) (bone tissue; [3]): 21.72%
Ct Por (cortical porosity) (bone tissue; [3]): 2.90%
Ct Th (cortical thickness) (bone tissue; [3]): 951.48 μm
ES/BS (eroded surface) (bone tissue; [3]): 4.11%
OS/BS (osteoid surface) (bone tissue; [3]): 49.25%
OV/BV (osteoid volume) (bone tissue; [3]): 9.74%
Obs/BS (osteoblast surface) (bone tissue; [3]): 20.28%
Tb N (trabecular number) (bone tissue; [3]): 1.85 mm^−1
Tb Th (trabecular thickness) (bone tissue; [3]): 117.25 μm
BT/TV (trabecular bone volume) (bone tissue; [4]): 19.69% and 16.65% and 25.74% and 24.78%
Ct Por (cortical porosity) (bone tissue; [4]): 2.76% and 2.94% (2×) and 2.95%
Ct Th (cortical thickness) (bone tissue; [4]): 1022.62 μm and 893.43 μm and 950.33 μm and 939.53 μm
ES/BS (eroded surface) (bone tissue; [4]): 4.62% and 4.76% and 4.21% and 2.85%
OS/BS (osteoid surface) (bone tissue; [4]): 54.84% and 43.57% and 43.63% and 54.97%
OV/BV (osteoid volume) (bone tissue; [4]): 11.24% and 9.61% and 8.14% and 9.95%
Obs/BS (osteoblast surface) (bone tissue; [4]): 16.16% and 21.25% and 18.46% and 25.25%
Tb N (trabecular number) (bone tissue; [4]): 1.52 mm^−1 and 1.79 mm^−1 and 2.13 mm^−1 and 1.97 mm^−1
Tb Th (trabecular thickness) (bone tissue; [4]): 129.22 μm and 93.20 μm and 120.52 μm and 126.07 μm
Increase in osteoid surface (bone tissue; vertebra): 37%
Increase in osteoid volume (bone tissue; vertebra): 213%
Increase in the osteoblast surface (bone tissue; vertebra): 24%
Reduction of cortical thickness and increase of cortical porosity (bone tissue; vertebra (V)): not in vertebra
BT/TV (trabecular bone volume) (bone tissue; [5]): 20.95%
Ct Por (cortical porosity) (bone tissue; [5]): 1.07%
Ct Th (cortical thickness) (bone tissue; [5]): 675.50 μm
ES/BS (eroded surface) (bone tissue; [5]): 4.53%
OS/BS (osteoid surface) (bone tissue; [5]): 25.36%
OV/BV (osteoid volume) (bone tissue; [5]): 4.45%
Obs/BS (osteoblast surface) (bone tissue; [5]): 9.56%
Tb N (trabecular number) (bone tissue; [5]): 1.68 mm^−1
Tb Th (trabecular thickness) (bone tissue; [5]): 123.43 μm
BT/TV (trabecular bone volume) (bone tissue; [6]): 15.15% and 20.23% and 23.56% and 24.86%
Ct Por (cortical porosity) (bone tissue; [6]): 1.49% and 1.45% and 0.41% and 0.92%
Ct Th (cortical thickness) (bone tissue; [6]): 707.43 μm and 629.35 μm and 740.87 μm and 624.35 μm
ES/BS (eroded surface) (bone tissue; [6]): 9.31% and 2.30% and 2.55% and 3.96%
OS/BS (osteoid surface) (bone tissue; [6]): 18.84% and 41.28% and 23.65% and 17.66%
OV/BV (osteoid volume) (bone tissue; [6]): 3.24% and 8.42% and 3.49% and 2.66%
Obs/BS (osteoblast surface) (bone tissue; [6]): 10.36% and 9.07% and 10.47% and 8.33%
Tb N (trabecular number) (bone tissue; [6]): 1.44 mm^−1 and 1.70 mm^−1 and 1.75 mm^−1 and 1.84 mm^−1
Tb Th (trabecular thickness) (bone tissue; [6]): 105.46 μm and 118.79 μm and 134.66 μm and 134.82 μm
Organs where changes in expression were seen: Cyclin-dependent kinases 5, 6, 10 ([1]; Cell cycle): B
Organs where changes in expression were seen: Cyclin-dependent kinases inhibitor 1A, 1C, 2D) ([1]; Cell cycle): B
Organs where changes in expression were seen: Cyclins (A, A2, B1, C, D2, E2, G1, G2) ([1]; Cell cycle): B
Organs where changes in expression were seen: Bone Morphogenetic Proteins [1, 7]: B
Organs where changes in expression were seen: Fibroblast Growth Factors [1, 7]: B
Organs where changes in expression were seen: Insulin-like Growth Factors [1, 7]: B
Organs where changes in expression were seen: TGFs [1, 7]: B
Organs where changes in expression were seen: Tob [1, 7]: B
Organs where changes in expression were seen: Activin [1, 8]: B
Organs where changes in expression were seen: Retinoic receptor X [1, 8]: B
Organs where changes in expression were seen: Y-box binding protein ([1]; Effects on Osteoblasts, transcription factor that regulates collagen type 1 synthesis): B
Organs where changes in expression were seen: H+ ATP-ases [1, 9]: B
Organs where changes in expression were seen: ODF/OPGL: osteoprotegerin ligand [1, 9]: B
Organs where changes in expression were seen: Granulocyte to macrophage colony-stimulating factor (CSF1) [1, 10]: B
Organs where changes in expression were seen: Monocyte to macrophage differentiation associate (MMD) [1, 10]: B
Organs where changes in expression were seen: PU.1 (SPI1) [1, 10]: B
Organs where changes in expression were seen: Aggrecan ([1]; Extracellular matrix component): B
Organs where changes in expression were seen: Chondroitin sulphate proteoglycan ([1]; Extracellular matrix component): B
Organs where changes in expression were seen: Dermatopontin ([1]; Extracellular matrix component): B
Organs where changes in expression were seen: Heparan sulphate proteoglycan ([1]; Extracellular matrix component): B
Organs where changes in expression were seen: Syndecan ([1]; Extracellular matrix component): B
Organs where changes in expression were seen: Integrins ([1]; Extracellular matrix, cell attachment, signal transduction): B
Organs where changes in expression were seen: Lysyl hydroxylase [1, 11]: B
Organs where changes in expression were seen: Procollagen endopeptidase/proteinase [1, 11]: B
Organs where changes in expression were seen: Adenylate cyclase ([1]; Signal transduction): B
Organs where changes in expression were seen: CREM ([1]; Signal transduction): B
Organs where changes in expression were seen: Calcyclin binding protein ([1]; Signal transduction): B
Organs where changes in expression were seen: MAPK ([1]; Signal transduction): B
Organs where changes in expression were seen: Phosphatidylinositol pathway ([1]; Signal transduction): B
Organs where changes in expression were seen: Phosphodiesterase (IB, 4A, 4B) ([1]; Signal transduction): B
Organs where changes in expression were seen: Phospholipase (C, D) ([1]; Signal transduction): B
Organs where changes in expression were seen: SMAD pathway ([1]; Signal transduction): B
Organs where changes in expression were seen: STAT pathway ([1]; Signal transduction): B
Organs where changes in expression were seen: Amelogenin (cement component) ([1]; cynomolgus monkey, in vivo): B
Organs where changes in expression were seen: Dentin (mineral matrix protein) ([1]; cynomolgus monkey, in vivo): B
Organs where changes in expression were seen: VEGF ([1]; cynomolgus monkey, in vivo): B
Haematology L ([2]; females, d7): 6.29 pg/ml and 5.87 pg/ml
Haematology M ([2]; females, d7): 0.44 nmol/l
Haematology MCH ([2]; females, d7): 18.9 ng/ml and 19.0 ng/ml
Haematology N ([2]; females, d7): 10.8 nmol/l and 5.49 nmol/l
Haematology PCV ([2]; females, d7): 0.41 mU/l and 0.43 mU/l
Haematology PLAT ([2]; females, d7): 525 nmol/l and 382 nmol/l
Haematology RBC ([2]; females, d7): 6.2 nmol/l and 6.4 nmol/l
Haematology E ([2]; females, d13): 0.21 mUI/l and 0.29 mUI/l
Haematology HB ([2]; females, d13): 11.3
Haematology L ([2]; females, d13): 5.81 pg/ml and 5.21 pg/ml
Haematology MCH ([2]; females, d13): 19.3 ng/ml and 19.2 ng/ml
Haematology MCHC ([2]; females, d13): 28.6 pg/ml and 29.2 pg/ml
Haematology N ([2]; females, d13): 6.36 nmol/l and 4.18 nmol/l
Haematology PCV ([2]; females, d13): 0.40 mU/l and 0.39 mU/l
Haematology PLAT ([2]; females, d13): 496 nmol/l and 309 nmol/l
Haematology RBC ([2]; females, d13): 5.9 nmol/l
Haematology L ([2]; females, d−8 (before dosing)): 3.92 pg/ml and 4.40 pg/ml
Haematology M ([2]; females, d−8 (before dosing)): 0.80 nmol/l and 0.54 nmol/l
Haematology MCH ([2]; females, d−8 (before dosing)): 19.3 ng/ml
Haematology MCHC ([2]; females, d−8 (before dosing)): 30.6 pg/ml and 30.2 pg/ml
Haematology N ([2]; females, d−8 (before dosing)): 5.34 nmol/l and 9.05 nmol/l
Haematology PCV ([2]; females, d−8 (before dosing)): 0.44 mU/l and 0.43 mU/l
Haematology RBC ([2]; females, d−8 (before dosing)): 6.9 nmol/l and 6.7 nmol/l
Haematology B ([2]; males, d7): 0.02 G/l and 0.03 G/l
Haematology HB ([2]; males, d7): 11.3 g/dl and 11.9 g/dl
Haematology L ([2]; males, d7): 5.91 G/l and 5.30 G/l
Haematology MCH ([2]; males, d7): 17.7 pg and 20.2 pg
Haematology MCHC ([2]; males, d7): 29.3 g/dl and 30.2 g/dl
Haematology MCV ([2]; males, d7): 60 fl and 67 fl
Haematology PCV ([2]; males, d7): 0.38 l/l and 0.40 l/l
Haematology PLAT ([2]; males, d7): 456 G/l and 589 G/l
Haematology RBC ([2]; males, d7): 6.4 T/l and 5.9 T/l
Haematology WBC ([2]; males, d7): 8.4 G/l and 15.0 G/l
Haematology B ([2]; males, d13): 0.04 G/l and 0.03 G/l
Haematology HB ([2]; males, d13): 11.7 g/dl and 11.8 g/dl
Haematology L ([2]; males, d13): 5.37 G/l and 4.86 G/l
Haematology M ([2]; males, d13): 0.27 G/l and 0.46 G/l
Haematology MCH ([2]; males, d13): 17.3 pg and 20.3 pg
Haematology MCHC ([2]; males, d13): 27.5 g/dl and 29.2 g/dl
Haematology MCV ([2]; males, d13): 63 fl and 70 fl
Haematology PCV ([2]; males, d13): 0.43 l/l and 0.41 l/l
Haematology PLAT ([2]; males, d13): 330 G/l and 452 G/l
Haematology RBC ([2]; males, d13): 6.8 T/l and 5.8 T/l
Haematology WBC ([2]; males, d13): 8.8 G/l and 11.9 G/l
Haematology HB ([2]; males, d−6 (before dosing)): 13.6 g/dl and 13.2 g/dl
Haematology L ([2]; males, d−6 (before dosing)): 5.07 G/l and 3.99 G/l
Haematology MCH ([2]; males, d−6 (before dosing)): 18.0 pg and 20.4 pg
Haematology MCHC ([2]; males, d−6 (before dosing)): 31.5 g/dl and 33.1 g/dl
Haematology MCV ([2]; males, d−6 (before dosing)): 57 fl and 62 fl
Haematology N ([2]; males, d−6 (before dosing)): 4.45 G/l and 4.80 G/l
Haematology PCV ([2]; males, d−6 (before dosing)): 0.43 l/l and 0.40 l/l
Haematology PLAT ([2]; males, d−6 (before dosing)): 325 G/l and 459 G/l
Haematology RBC ([2]; males, d−6 (before dosing)): 7.6 T/l and 6.5 T/l
Haematology WBC ([2]; males, d−6 (before dosing)): 10.4 G/l and 9.1 G/l
